Key:
[1] = test system: antioxidant response element (ARE); assay: ARE luciferase reporter gene activity in HepG2 cells; type: cell-based, human; details: 50 μM, HepG2 stably transfected (FIG. 4)
Method: NF-κB was the most important inflammatory signal pathway. SW480 human colon cancer cells stably transfected with a luciferase reporter gene driven by NF-κB were used to determine the effects of the compound of the present application and the control drug gemfibrozil on NF-κB transcriptional activity, which comprised the following steps. • (1) Cells stably transfected with NF-κB Luc were cultivated to exponential growth, inoculated at a culture medium concentration of 1×10^5/[…] in a 24-well plate, and cultured for 24 hours, the medium was discarded, and the test compound or gemfibrozil formulated with serum-free medium at 50 μM were added to the 24-well plate and incubation was continued for 6 hours. After washing once with 200 μL of PBS, 100 μL of reporter gene cell lysis buffer was added, the cells were lysed on ice for 10 minutes, and the cell lysate was collected by pipetting. • (2) After centrifugation was performed at 8000 rpm and 4° C. for 10 min, the supernatant was pipetted for fluorescence assay. • (3) The measurement gap time of chemiluminescence analyzer was set to 2 s and the measurement time was set to 10 s. Automatic sample injection was adopted, 50 μL of luciferase assay reagent was added to each well. The reporter gene cell lysis buffer was used as a blank control. • (4) After centrifugation, the supernatant was taken, and the BCA method was used to determine the protein concentration so as to normalize the reporter gene results.
In this experimental example, the luciferase activity in HepG2 human liver cancer cells stably transfected with a luciferase reporter gene driven by antioxidant response element (ARE) was determined to evaluate the regulatory effects of the compound of the present application and gemfibrozil on the transcriptional activity of transcription factor Nrf2 and the cellular oxidative stress response signals, in which the operation process of the reporter gene assay was the same as that of Experimental Example 2.2.

[2] = test system: RAW264.7 mouse macrophages; assay: Determination of NO generation induced by LPS; type: cell-based; details: 10 μM, 1 μg/mL LPS, 24 hours, RAW264.7 (FIG. 2)
Method: The results are expressed as the multiple of the NO content in the cell culture supernatant of the administration group (10 μM) as compared with that in the cell culture supernatant of the control group (DMSO group), in which compared with the control group, *P<0.05, **P<0.01, ***P<0.001.
NO is a reactive nitrogen species (RNS) and an important gas signal molecule. Macrophages could convert arginine into NO which participated in the body's inflammatory response. Therefore, determination of inhibitory activity of a drug on NO generation was one of the classic methods to evaluate drug's anti-inflammatory ability. RAW264.7 cells at exponential growth phase were inoculated into a 96-well plate at 1×10^4 cells/200 μL. well of medium. After adherence, the medium was discarded, and the cells were subjected to drug treatments. Normal group (serum-free medium), LPS model group (serum-free medium containing 1 μg/mL LPS), LPS+drug group (serum-free medium containing 1 μg/mL LPS, 10 μM gemfibrozil or the compound of the present application) were established, and 3 repeated wells were set for each group. After 24 hours incubation in incubator, cell supernatant of each well was collected and assay was performed according to the instructions of NO determination kit (Nanjing Jiancheng). The absorbance value of each well at wavelength of 540 nm was read and NO content was calculated.

[3] = test system: PPARγ; assay: PPARγ mRNA expression by real-time quantitative PCR in HepG2; type: cell-based, human; details: 1 μM, 6 hours, HepG2 (FIG. 5B)
Description: Peroxisome proliferation factor activated receptor (PPAR) is an important nuclear receptor that regulates glycolipid metabolism, including three subtypes: α, β/δ and γ. Peroxisome proliferator-activated receptor γ coactivator 1α (PGC-1α) is its auxiliary transcriptional activator. Acyl-CoA oxidase 1 (ACOX1) is the first rate-limiting enzyme for fatty acid β oxidation. Fatty acid binding protein 1 (FABP1) is highly expressed in liver, and can bind fatty acid, heme and other molecules to reduce their toxicity and damage. Up-regulating the expression level of these genes helps to improve the body's metabolism, and their agonists are an important class of anti-metabolic drugs. After the compound of the present application (1 μM) and the control drug gemfibrozil (1 μM) were incubated with human liver cancer cells HepG2 for 6 hours, real-time fluorescent quantitative PCR method was used to determine the relative expression of mRNA of related genes in the cells.
The company which synthesized the primers was Suzhou Hongxun Biotechnology Co., Ltd. Tranzol reagent (Tranzol total RNA extraction reagent, TransGen Biotech) was used to extract total RNA from tissues. 5× All-In-One RT MasterMix reverse transcription kit (Abcam, USA) and real-time quantitative PCR Master Mix (Aidlab Biotechnologies Co., Ltd) were used. Bio-Rad CFX Connect™ Real-Time PCR Detection System for qPCR was used, and 2^−ΔΔCT method was used for data analysis. The expression level of mRNA in the normal control group was set to 1, and the relative expression level of mRNA in the administration group was calculated, so as to confirm whether the active compound affected the PPAR pathway, thereby further regulating lipid metabolism.

[4] = test system: db/db mice; assay: Diabetes mellitus model (db/db mice); type: in vivo, mouse; details: for blood glucose level: 50 mg/kg intragastric once a day for 28 days (FIG. 7); for AHDL (high density lipoprotein) / ALDL (low density lipoprotein) / ALT / AST / BUN / CHOL (total cholesterol) / CK / CREA / TGL (triglycerides) / fat content in the liver (Oil red O and H.E. staining): intragastric once a day for 28 days; for AHDL (high density lipoprotein) / ALDL (low density lipoprotein) / ALT / AST / BUN / CHOL (total cholesterol) / CK / CREA / TGL (triglycerides): 50 mg/kg (pioglitazone 6 mg/kg); for fat content in the liver (Oil red O and H.E. staining): 50 mg/kg (pioglitazone 6 mg/kg) (FIGS. 8A-8B)
Description: Animal model: C57BL/KsJ-leprdb/leprdb diabetic (db/db) mice were widely used as animal models of type 2 diabetes mellitus, in which spontaneous mutations of leptin receptor (Leptin receptor, Lepr) caused extreme obesity, polyphagia, diabetes and polyuria. In this experiment, db/db mice (purchased from the Department of Animals, Health Science Center of Peking University) were selected. In the experiment, 28 db/db mice were used, and the animals with blood glucose of about 7-13 mmol/L were selected. […] Intragastric administration was adopted with an administration volume of 10 ml/kg. […] The administration was performed once a day for 28 consecutive days. From the day of oral administration, the physiological changes of the animals were observed every day. Blood glucose was measured every 3 days (Roche blood glucose meter) and blood glucose difference (Δ) was calculated by the following formula: blood glucose difference (Δ)=the blood glucose of the day—the initial blood glucose (the initial blood glucose difference was zero). For mice in each experimental group, blood was collected, serum was separated, and liver was taken for wet-weight measurement after necropsy; liver tissue was taken and fixed for pathological examination, H.E. staining and oil red O staining (Wuhan Zishan Biotechnology Co., Ltd.) were performed, and mouse liver lesions were observed under light microscope; routine examination of blood was performed by Animal Laboratory Department, Health Science Center of Peking University to measure the following indexes: white blood cell count (WBC), red blood cell count (RBC), lymphocyte count (LY), platelet (PLT) and so on; biochemical laboratory examination of blood was performed by Laboratory Medicine, Third Hospital, Peking University to measure the following indexes: triglycerides (TG), total cholesterol (T-CHO), high-density lipoprotein cholesterol (HDL-C), low-density lipoprotein cholesterol (LDL-C) and so on.

[5] = 50 mg/kg intragastric once a day for 28 days

| BUN [4] [mmol/L] | CK [4] [U/L] | CREA [4] [µmol/L] | Compound | ARE reporter gene activity [1] | NO generation induced by LPS [2] | PPARγ mRNA expression [3] | activity of lowering triglycerides (in words) [4, 5] | total cholesterol content in blood (in words) [4, 5] | blood glucose level [4] | AHDL (high density lipoprotein) [4] [mmol/L] | ALDL (low density lipoprotein) [4] [mmol/L] | ALT [4] | AST [4] [U/L] | CHOL (total cholesterol) [4] [mmol/L] | TGL (triglycerides) [4] [mmol/L] | fat content in the liver (Oil red O and H.E. staining) [4] |
| --- | --- | --- | --- | --- | --- | --- | --- | --- | --- | --- | --- | --- | --- | --- | --- | --- |
|  |  |  | Cc1cc(OCCCC(C)(C)C(=O)O)c(C)cc1Cl [BJMU-1, 5-(4-chloro-2,5-dimethylphenoxy)-2,2-dimethylpentanoic acid] | could significantly activate the ARE reporter gene activity | could inhibit NO generation |  |  |  |  |  |  |  |  |  |  |  |
| 7.23 ± 1.19 | 1790.75 ± 388.38 | 10.13 ± 5.25 | Cc1cc(OCCCC(C)(C)C(=O)O)c(C)cc1Br [BJMU-2, 5-(4-bromo-2,5-dimethylphenoxy)-2,2-dimethylpentanoic acid] | could significantly activate the ARE reporter gene activity | could inhibit NO generation | significantly induced PPARγ mRNA expression | had an activity of lowering triglycerides better than gemfibrozil | could reduce the total cholesterol content in the blood | could significantly reduce the blood glucose level | 1.59 ± 0.13 | 0.33 ± 0.09 | 187.75 ± 62.07 U/L | 210.75 ± 56.97 | 3.06 ± 0.63 | 1.44 ± 0.42 | could significantly reduce the fat content in the liver |
|  |  |  | Cc1cc(OCCCC(C)(C)C(=O)O)c(C)cc1F [BJMU-3, 5-(4-fluoro-2,5-dimethylphenoxy)-2,2-dimethylpentanoic acid] | could significantly activate the ARE reporter gene activity | could inhibit NO generation | significantly induced PPARγ mRNA expression |  |  |  |  |  |  |  |  |  |  |
| 9.56 ± 1.57 | 1037 ± 523.17 | 16 ± 10.46 | Cc1ccc(C)c(OCCCC(C)(C)C(=O)O)c1 [gemfibrozil, Gemfibrozil, reference compound] | did not obviously activate the ARE | did not have an activity of inhibiting NO generation |  |  | did not show the activity of lowering total cholesterol in blood | did not show obvious hypoglycemic activity | 1.64 ± 0.28 | 0.35 ± 0.02 | 172.25 ± 123^ U/L | 225 ± 132.19 | 3.37 ± 0.36 | 2.09 ± 0.95 | neither gemfibrozil nor pioglitazone showed the above activity |
